Measurements from paper PMC5656322, “BAK1 is involved in AtRALF1-induced inhibition of root cell expansion” (PLoS Genetics, 2017).
Where two headings read alike, the source gives them in different places. Where no end group is shown, it is not given here. acridinium ester = acridinium ester label conjugated to the N-terminus of the peptide

Key:
[1] = test system: Arabidopsis seedlings, primary root; assay: Root growth inhibition assay, vertical plates; format: in vivo, Arabidopsis thaliana; settings: bak1 mutants, 0.1 μM, 8 days
Method: (§1) (A) and (B) Arabidopsis seedlings (2 days old) were treated with 10 μM AtRALF1 or water (H20) for 2 days. The values are the mean ± SD of at least 25 seedlings. Triple asterisks indicate P < 0.01 (Student’s t test); ns, not significant. (C) Four-day-old seedlings were transferred to media containing different concentrations of AtRALF1, and the primary root length was measured after 8 days of treatment. The data represent the mean value ± SD of 30 seedlings. […] Representative Arabidopsis seedlings after 8 days of treatment with AtRALF1 are shown below. Seedlings were arranged on plates after the treatment for imaging. Scale bars, 1 cm. (D) Two-day-old seedlings were treated with 10 μM AtRALF1 or water for 2 days, and root cell length was measured after 2 days of treatment. Cells from the root endodermis in the differentiation zone were measured. The values are the mean ± SD of approximately 150 cells. Triple asterisks indicate P < 0.01 (Student’s t test); ns, not significant.
Aliquots of 1 ml of medium containing seeds were distributed into 24-well plates. The peptides (10 μM) were added after 2 days, and the root length was measured 2 days after treatment. To maximize root growth, the seeds were germinated in vertical plates. […] The root length was measured 8 days after treatment unless stated otherwise. Control plants were grown under identical conditions in a peptide-free medium. Quantitative data were obtained as previously described. […] The data from one representative experiment are shown. For cell length measurements, AtRALF1 peptide (10 μM) was added after 2 days of germination, and the cell length was measured after 2 days of treatment. The cell wall was stained with a 1 mg ml^-1 propidium iodide solution (Sigma) in the dark for 15 min and washed twice with water. Cells of the endodermis of the root differentiation zone were imaged and measured using confocal microscopy (Olympus FV1000). Approximately 30 plants from each genetic background and at least 5 cells per root were measured. The wavelengths for excitation and emission were 555 and 655 nm, respectively. Image processing was completed using the Olympus FluoView software.
Supplementary file pgen.1007053.s004.pdf: S4 Fig Analyses of root growth of Arabidopsis seedlings treated with AtRALF1 peptide for 8 days and evaluated daily. Four-day-old seedlings were transferred to media containing different concentrations of AtRALF1, and the primary root length was measured daily during the 8 days of treatment. Genotypes Wt, bak1-1, bak1-3 and bak1-4 are indicated on top of each series of graphics. The seedlings were treated with 0, 0.5, 1, 5 and 10 μM AtRALF1. The data represent the mean values ± SD of 30 seedlings. Double and triple asterisks indicate P < 0.05 and P <0.01, respectively (Student’s t test); ns, not significant. (PDF) Click here for additional data file.
Four-day-old seedlings were transferred to medium containing 10 μM AtRALF1, and the primary root length was measured after 8 days of treatment. The data represent the mean value ± SD of 20 seedlings. Triple asterisks indicate P < 0.01 (Student’s t test); ns, not significant. Representative Arabidopsis seedlings after 8 days of treatment with AtRALF1 are shown. The seedlings were arranged on plates after the treatment for imaging. Scale bars, 1 cm. (PDF) Click here for additional data file.
Four-day-old seedlings were transferred to medium containing 0.1 μM BAP, and the primary root length was measured after 8 days of treatment. The data represent the mean value ± SD of 10 seedlings.

[2] = test system: Arabidopsis seedlings, primary root; assay: Root growth inhibition assay, liquid medium, 24-well plates; format: in vivo, Arabidopsis thaliana; settings: 10 μM, 2 days; bak1-1, bak1-3 and bak1-4 mutants
Method: as §1
Aliquots of 1 ml of medium containing seeds were distributed into 24-well plates. The peptides (10 μM) were added after 2 days, and the root length was measured 2 days after treatment. To maximize root growth, the seeds were germinated in vertical plates. […] The root length was measured 8 days after treatment unless stated otherwise. Control plants were grown under identical conditions in a peptide-free medium. Quantitative data were obtained as previously described. The experiments were repeated at least 3 times using independent biological replicates with similar results. The data from one representative experiment are shown. For cell length measurements, AtRALF1 peptide (10 μM) was added after 2 days of germination, and the cell length was measured after 2 days of treatment. The cell wall was stained with a 1 mg ml^-1 propidium iodide solution (Sigma) in the dark for 15 min and washed twice with water. Cells of the endodermis of the root differentiation zone were imaged and measured using confocal microscopy (Olympus FV1000). Approximately 30 plants from each genetic background and at least 5 cells per root were measured. The wavelengths for excitation and emission were 555 and 655 nm, respectively. Image processing was completed using the Olympus FluoView software.
Arabidopsis seedlings (2-days-old) were treated with 10 μM AtRALF1 or water (H20) for 2 days. The values are the mean ± SD of at least 25 seedlings. Triple asterisks indicate P < 0.01 (Student’s t test); ns, not significant. (PDF) Click here for additional data file.
Supplementary file pgen.1007053.s002.pdf: S2 Fig Loss-of-function bak1 mutants are sensitive to the inhibitory activity of AtRALF23/34 on root growth. Arabidopsis seedlings (2-day-old) were treated with 10 μM RALF1(9–49), RALF1(I6A), AtRALF1, AtRALF23 and AtRALF34 or water (H20) for 2 days. The values are the mean ± SD of at least 20 seedlings. […] (PDF) Click here for additional data file.

[3] = test system: Arabidopsis seedlings, primary root; settings: wild-type Arabidopsis; ref [5]; cited from earlier work
Method: To better understand the role of AtRALF1 and BRs in regulating cell expansion, we exposed different mutants and transgenic Arabidopsis plants with altered BR signaling pathways to the peptide hormone AtRALF1 at concentrations that inhibit root growth. Loss-of-function mutants (bri1-301, bsk3-2 and bak1-4), gain-of-function mutants (sud1, bes1-D and bzr1-D) and two overexpressor lines (BRI OX and DWF4 OX) were used in the root growth assays in the presence or absence of 10 μM AtRALF1 (Fig 1A).

[4] = test system: cell suspensions; settings: ref [5]; cited from earlier work
[5] = test system: cytosolic Ca^2+ in Arabidopsis seedlings; assay: Ca^2+ mobilization assay (apoaequorin luminescence); format: in vivo, Arabidopsis thaliana; settings: acriAtRALF1 vs unlabeled AtRALF1, apoaequorin seedlings (S17A Fig)
Method: The cytoplasmic Ca^2+ assay was performed in Arabidopsis seedlings as described previously. Changes in Ca^2+ levels were measured using an Arabidopsis line homozygous for the single insertion of a transgene encoding a cytoplasmically expressed apoaequorin protein driven by the constitutive promoter 35S [53], here denoted Wt-aeq. Wt-aeq plants were crossed with bak1-3 mutants, and T3 generation plants overexpressing apoaequorin and containing a T-DNA insertion in the BAK1 gene, named bak1-3-aeq, were selected and evaluated using semi-quantitative RT-PCR with specific primers (S1 Table). Arabidopsis seedlings were grown in plates for 4 days. A single seedling was transferred into each well of a 96-well white microplate (Thermo Labsystems) containing 200 μl of medium supplemented with […] coelenterazine cp (Biotium) and incubated in the dark at 24 °C for 16 h. Each well containing a single seedling received recombinant AtRALF1 or acridinium-labeled AtRALF1 at a final concentration of 5, 10 or 100 nM as indicated. The resulting luminescence emission was monitored using a microplate reader (Biotec ELx 800) and 20 time-points for approximately 160 s. The experiments were repeated at least three times using independent biological replicates. The data shown are from one representative experiment.

[6] = test system: intact Arabidopsis seedlings; assay: Binding assay with acridinium-labeled AtRALF1, intact seedlings; design: species or system Arabidopsis thaliana; settings: for reduction of total acriAtRALF1 binding vs wild-type: 7 nM, 4 °C
Method: (§2) (A) Whole seedlings (5 days old) were treated for 15 min with acriAtRALF1 (acriR1), acriR1 and an excess of unlabeled AtRALF34 (R34), RALF1(9–49) [(R-9-49)], or AtRALF1 (R1), as indicated. The values are the mean ± SD of two measurements (5 seedlings each). (B) Microsomal fractions from wild-type and bak1 mutants were incubated for 15 min with acriAtRALF1 (acriR1), with acriR1 and an excess of unlabeled RALF1(9–49) [(R-9-49)], or with AtRALF1 (R1), as indicated. The values are the mean ± SD of two measurements. The proportions of labeled: unlabeled proteins are shown in parentheses. Single and triple asterisks indicate P < 0.1 and P < 0.01 (Student’s t test).
(§3) Arabidopsis seedlings were grown for 5 days on vertical plates. Roots were homogenized in extraction buffer [300 mM sucrose, 100 mM Tris-HCl pH 7.5, 25 mM EDTA, 25 mM NaF, 1 mM Na2MoO4, 1 mM PMSF and protease inhibitor cocktail (Roche), adjusted to pH 6.2], and the homogenate was spun at 2,000 x g for 10 min at 4 °C. The supernatant was recovered and centrifuged at 100,000 x g for 50 min at 4 °C to precipitate the microsomal pellet. The pellet was resuspended in the extraction buffer plus 0.5% Triton-X. Seedlings or microsomal fractions were placed in 200 μl of medium and incubated with 7 nM acridinium-labeled peptide (acriAtRALF1 or acriAtRALF34) and different concentrations of AtRALF1, AtRALF34 or RALF1(9–49) for 15–20 min at 4 °C on a shaker. After incubation, the seedlings or microsomal fractions were washed three times with the same medium. Unless indicated otherwise, five entire seedlings and approximately 10 ng of microsomal fractions were used per treatment. The resulting luminescence emissions from the acridinium were measured using a microplate reader (Biotec ELx 800) at 2 s after injecting 50 μl of a solution containing 20 mM H2O2 in 0.1 M NaOH. These experiments were repeated at least three times using independent biological replicates. Duplicates were used for each concentration or treatment. The data shown are from one representative experiment.
Supplementary file pgen.1007053.s017.pdf: S17 Fig Analyses of acridinium-labeled AtRALF1 (acriAtRALF1) and binding of acriAtRALF1 in bak1-4 and fer4 mutants. (A) The Ca^2+ mobilization assay comparing the acriAtRALF1 activity with the AtRALF1 peptide. A total of 20 time-points per treatment were measured over 160 sec and summed. The results are the means ± SD of two measurements. (B) acriAtRALF1 binding in whole seedlings and only in roots of Arabidopsis. The roots were excised just before measurements. Ctr, seedlings treated with unlabeled AtRALF1. (C) Whole seedlings (5 days old) were treated for 20 min with acriAtRALF1 (acriR1), acriR1 and an excess of unlabeled AtRALF1 (R1), as indicated. The values are the mean ± SD of three measurements (5 seedlings each). The proportions of labeled: unlabeled proteins are shown in parentheses. Triple asterisks indicates P < 0.001 (Student’s t test). (PDF) Click here for additional data file.
Supplementary file pgen.1007053.s018.pdf: S18 Fig Binding of acridinium-labeled AtRALF1 and AtRALF34 to intact Arabidopsis seedlings. (A) bak7 seedlings (5 days old) were treated for 15 min with acriAtRALF1 (acriR1), acriR1 and an excess of unlabeled AtRALF1 (R1), as indicated. (B) bak1 seedlings (5 days old) were treated for 15 min with acriAtRALF34 (acriR34), acriR34 and an excess of unlabeled AtRALF34 (R34) or AtRALF1 (R1), as indicated. The proportions of labeled: unlabeled proteins are shown in parentheses. The values are the mean ± SD of two measurements (5 seedlings each). (PDF) Click here for additional data file.

[7] = test system: microsomal fractions from the roots of Arabidopsis; assay: Binding assay with acridinium-labeled AtRALF1, microsomal fractions; design: species or system Arabidopsis thaliana
Method: as §2, §3

## c1ccc(CNc2ncnc3nc[nH]c23)cc1 [6-benzylaminopurine (BAP), 6-benzylaminopurine, reference compound]
[1]
  root growth inhibition: capable of inhibiting the root growth of bak1 mutants

## AtRALF23: Arabidopsis RALF isoform (ATRRYISYGALRRNTIPCSRRGASYYNCRRGAQANPYSRGCSAITRCRRS; ends and bridges not checked; cysteine pairing not given here; UniProt Q9LUS7 89-138, looked up) [reference compound]
[2]
  primary root growth inhibition: inhibited the primary root growth
[3]
  primary root growth inhibition: inhibits the primary root growth of wild-type Arabidopsis plants
[4]
  alkalinization of the extracellular medium: alkalinizes the extracellular medium of cell suspensions

## acriAtRALF1: acridinium-labeled AtRALF1; acridinium ester conjugated to the N-terminal of the peptide ({acridinium ester}-ATTKYISYQSLKRNSVPCSRRGASYYNCQNGAQANPYSRGCSKIARCRS; ends and bridges not checked)
[5]
  increase in cytoplasmic Ca^2+: induced an increase in cytoplasmic Ca^2+
[6]; bak1-1 seedlings, 15 min
  reduction of total acriAtRALF1 binding vs wild-type: 30%
[6]; bak1-3 seedlings, 15 min
  reduction of total acriAtRALF1 binding vs wild-type: 29%
[6]; bak1-4 seedlings, 15 min
  reduction of total acriAtRALF1 binding vs wild-type: 31%
[6]; bak7 mutants, 15 min
  reduction of total acriAtRALF1 binding, wild-type vs bak7: no differences in the reduction of total binding between wild-type and bak7 mutants were observed
[6]; fer4 mutants, 20 min (S17C Fig)
  reduction of total acriAtRALF1 binding: approximately 48%
[6]; whole seedlings vs only roots (S17B Fig)
  source of acriAtRALF1 chemiluminescent signal: the roots were the only source of the chemiluminescent signal
[7]; microsomal fractions
  nature of acriAtRALF1 binding: specific and saturable
[7]; microsomal fractions of bak1 mutants, 7 nM, 4 °C
  reduction of total acriAtRALF1 binding vs wild-type: approximately 15%
